Read-outs that look alike come from different tables or passages of the source.
Assays:
HeLa cell = test: Cytotoxicity by Trypan Blue dye exclusion (cell viability); type: cell-based, human
Description: (B) HeLa cell death being negligible in the concentration and time frame conditions used in (A), the cytotoxicity of 16 μM mycolactone and variants was evaluated after 48 h of incubation by cell exclusion of the Trypan Blue dye. Here, one part of Trypan blue (0.4% in phosphate-buffered saline PBS) was mixed with one part cell suspension (recovered from cell culture wells by trypsin treatment). The mixture was incubated for 3 min at room temperature and unstained (viable) and stained (nonviable) cells counted separately with a hemacytometer.

[1] = system: IL-2 production by Jurkat T cells; test: Immunosuppressive activity: activation-induced IL-2 production, ELISA; type: cell-based, human; conditions: for Cytokine production (M.A.: mean absorbance) (C) % relative to control / IC50: Jurkat T cells; for Cytokine production (M.A.: mean absorbance) (C) % relative to control: PMA + calcium ionophore, IL-2 ELISA; for IC50: IL-2, % inhibition relative to control, read-out: Cytokine production (C): IC50 value (concentration at which the compound induces 50% of mycolactone maximal activity); for Cytokine production (C): corresponding % of mycolactone activity (in brackets): relative to mycolactone (100%)
Description: (C) The immunosuppressive activity of mycolactone and variants was measured on Jurkat T cells (ATCC®; TIB-152™ clone E6-1), as models of human T lymphocytes. Cells were inoculated in 96-well plates (5×10^5 cells/well in RPMI 1640 medium supplemented with 10% fetal calf serum and 2 mM L-Glutamine) then incubated with serial dilutions of the various compounds for 4 h, and stimulated for 20 h with 50 ng/ml phorbol-12-myristate-13-acetate (PMA) and 1 μg/ml calcium ionophore. The production of IL-2 was then assessed in culture supernatants by ELISA.

[2] = system: epithelial HeLa cell line; test: Cytopathic activity, MTT assay (effect on global cell metabolic activity); type: cell-based, human; conditions: for Metabolic activity (MA: mean absorbance) (A) % relative to control / IC50: HeLa cells, 48 h, MTT; for IC50: % inhibition relative to control, read-out: Metabolic activity (A): IC50 value (concentration at which the compound induces 50% of mycolactone maximal activity); for Metabolic activity (A): corresponding % of mycolactone activity (in brackets): relative to mycolactone (100%)
Description: (A) The cytopathic activity of mycolactone and variants was assessed in a [3-(4,5-Dimethylthiazol-2-yl)-2,5-Diphenyltetrazolium Bromide] (MTT) assay, using the epithelial HeLa cell line (ATCC®; CCL-2) as a model. Briefly, HeLa cells were plated in 96-well plates (10^4 cells/well) in Dulbecco's Modified Eagle culture medium supplemented with 10% fetal calf serum and 2 mM L-Glutamine. After 16 h, mycolactone or variants dilutions (final concentration 0.4-8 μM) were added to the wells, and incubated with the cells for 48 h, prior to the addition of MTT at 50 μg/ml. After 4 h, culture supernatants were removed and the formed formazan crystals dissolved in dimethyl sulfoxide (DMSO) for absorbance measurement.

[3] = system: CD62-L receptor expression by human peripheral blood cells (PBLs); test: T cell homing: expression of CD62-L receptor, flow cytometry; type: cell-based; conditions: for CD62-L expression (MFI: mean fluorescence intensity) (D) % relative to control / IC50: human PBLs, 72 h; for IC50: % inhibition relative to control, read-out: CD62-L expression (D): IC50 value (concentration at which the compound induces 50% of mycolactone maximal activity); for CD62-L expression (D): corresponding % of mycolactone activity (in brackets): relative to mycolactone (100%)
Description: (D) The effect of mycolactone and variants on T cell homing was assessed through their inhibitory effect on the expression of CD62-L receptor by human peripheral blood cells (PBLs). Human PBLs were isolated from total blood by Ficoll density gradient centrifugation. They were incubated in 96-well plates (10^5 cells/well in RPMI 1640 medium supplemented with 10% fetal calf serum and 2 mM L-Glutamine) with mycolactone or variant for 72 h. Cells were then fixed for 20 min in 4% paraformaldehyde (PFA) and stained with an anti-CD62-L antibody coupled with phycoerythrin in a solution of PBS, BSA 0.5%, saponin 0.05%, then analysed by flow cytometry.

[4] = Formalin-induced acute pain model; type: in vivo; conditions: intraperitoneally 60 minutes before formalin, Mycolactone 0.5 mg/kg; for activity against inflammatory pain (global score of pain, late phase 10-40 min): variant 22 5 mg/kg
Description: The analgesic properties of Mycolactone and variant 22 were tested in the formalin-induced acute pain model (Encyclopedia of Psychopharmacology, Volume 2, p. 111).
Briefly, Mycolactone and variant 22 were administered intraperitoneally at 0.5 and 5 mg/kg respectively, 60 minutes before the subcutaneous injection of 10 μl of a 5% formalin solution of the right hind-leg. Two negative control groups, injected with PBS (neutral) or ethanol vehicle (vehicle) were tested in the same conditions. A group injected with 3 mg/kg morphin 15 minutes before formalin injection was used as a positive reference.
The time spent in licking/biting and the number of jumps during the early phase (0-5 min) and the late phase (10-40 min) were recorded, as indicators of acute and inflammatory pain, respectively. The graphs in FIG. 5 compare the global score of pain (rank sum of licking/biting time and jump number) in the five groups of animals (Mann-Whitney test on trimmed means; n≧6; *P<0.05 **P<0.01 vs. neutral; # P<0.05, # P<0.01 vs. vehicle.

T cell trafficking = conditions: Guenin-Macé et al., 2011; cited from earlier work
dendritic cells = conditions: Coutanceau et al., 2007; cited from earlier work
macrophages = conditions: Coutanceau et al., 2005; cited from earlier work

Molecule	Cytokine production (M.A.: mean absorbance) (C) % relative to control ([1]; 0.4 μM)	Cytokine production (M.A.: mean absorbance) (C) % relative to control ([1]; 4 μM)	Cytokine production (M.A.: mean absorbance) (C) % relative to control ([1]; 8 μM)	IC50 ([1]; Homo sapiens)	Cytokine production (C): corresponding % of mycolactone activity (in brackets) [1]	Metabolic activity (MA: mean absorbance) (A) % relative to control ([2]; 0.4 μM)	Metabolic activity (MA: mean absorbance) (A) % relative to control ([2]; 4 μM)	Metabolic activity (MA: mean absorbance) (A) % relative to control ([2]; 8 μM)	Metabolic activity (A): corresponding % of mycolactone activity (in brackets) [2]	CD62-L expression (MFI: mean fluorescence intensity) (D) % relative to control ([3]; 4 μM)	CD62-L expression (MFI: mean fluorescence intensity) (D) % relative to control ([3]; 8 μM)	IC50 ([3]; T-cell)	CD62-L expression (D): corresponding % of mycolactone activity (in brackets) [3]	activity against inflammatory pain (global score of pain, late phase 10-40 min) [4]	other results
C/C(=C\[C@@H](C)[C@H](O)C[C@@H](C)O)C[C@H](C)[C@H]1C/C=C/C[C@H](C)[C@@H](O)CCCC(=O)O1 [Compound 11c, (6 S,7 S,9E,12R)-12-[(2S,4E,6R,7R,9R)-7,9-dihydroxy-4,6-dimethyldec-4-en-2-yl]-6-hydroxy-7-methyl-1-oxacyclododec-9-en-2-one]	0%	30%	50%	8 µM	1.2%	0%	30%	40%	20%	20%	40%	16 µM	0.2%		cytotoxicity (HeLa cell; in the conditions tested): not cytotoxic; inhibition of IL-2 production by lymphocytes [1]: significant inhibition; effect on the metabolic activity of HeLa cells [2]: showed inhibitory effect; IC50 ([2]; Homo sapiens): 16 µM; inhibition of CD62-L expression by lymphocytes [3]: significant inhibition
CC(=C\C=C\C(C)=C\[C@H](O)[C@@H](O)C[C@H](C)O)/C=C(C)/C=C/C(=O)O[C@H]1CCCC(=O)O[C@@H](C(C)C)C/C=C/C[C@@H]1C [Compound 22, (6S,7S,9E,12R)-7-methyl-2-oxo-12-(propan-2-yl)-1-oxacyclododec-9-en-6-yl(2E,4E,6E,8E,10E,12S,13S,15S)-12,13,15-trihydroxy-4,6,10-trimethylhexadeca-2,4,6,8,10-pentaenoate]	15%	58%	95%	3 µM	3.3%	0%	0%	0%		60%	70%	3.7 µM	0.8%	effective	cytotoxic effect (HeLa cell; at concentrations <16 μM): no cytotoxic nor cytopathic effect; reduction of IL-2 production ([1]; at concentrations >4 μM): significant reduction; cytopathic effect ([2]; at concentrations <16 μM): no cytotoxic nor cytopathic effect; reduction of CD62-L expression ([3]; at concentrations >4 μM): significant reduction
Mycolactone [reference compound]	99%	100%	100%		100%	70%	80%	100%	100%	100%	100%		100%	significant activity	T cell trafficking in vivo (T cell trafficking): severely impairs T cell trafficking; IC50 [1]: 0.1 µM; activation-induced production of IL-2 by human lymphocytes ([1]; at concentrations >0.4 μM): complete blockade; production of chemotactic signals by dendritic cells (dendritic cells): inhibits the production of chemotactic signals; IC50 [2]: 3.5 µM; cell viability ([2]; at concentrations >0.4 μM): markedly reduced cell viability; activity against acute pain (global score of pain, early phase 0-5 min) [4]: significant activity; CD62-L expression (MFI: mean fluorescence intensity) (D) % relative to control ([3]; 0.4 μM): 100%; expression of CD62-L ([3]; at concentrations >0.4 μM): totally suppressed; IC50 [3]: < 0.03 µM; release of inflammatory TNF by macrophages (macrophages): blocks the release of inflammatory TNF

From patent US9598393B2, “Structural variants of mycolactones for use in modulating inflammation, immunity and pain” (priority 2011, dated 2017)
